Where two headings read alike, the source gives them in different places.
What was measured:
Vaccinia Lister [1] = assay: One-step replication cycle on permanent human kidney cell line; settings: mean of two experiments
[2] = tested on: SE-spezifischen IgM- und IgG-PBZ; assay: Plaque test after damage of the immune system by cyclophosphamide (immunorestoration); assay type: in vivo, CBA-Inzuchtmäuse; settings: ZY 150 mg/kg day -1 + 2 mg/kg oral days -2 to +2
Description: Der Nachweis von immunrestaurativen Wirkungen erfolgte nach Schädigung des Immunsystems ebenfalls mittels • Plaque-Test zum Nachweis von SE-spezifischen IgM- und IgG-PBZ sowie durch • Rosettentest.
Aus den Werten wird deutlich, daß die Verbindungen der allgemeinen Formel I einen gut nachweisbaren Effekt auf die Effektor-T-Lymphozyten-abhängige verzögerte Uberempfindlichkeit haben. Kontaktdermatitis-Werte ab 120 (≙ 20 % Steigerung gegenüber der Kontrolle) bzw. unter 80 werden als Nachweis eines stimulatorischen bzw. suppressorischen Effektes angesehen. Antikörpertiter-Differenzen von >+1 bzw. <-1 verdeutlichen den stimulatorischen bzw. suppressorischen Effekt der Substanzen auf die humorale Immunantwort. 2. Untersuchungen zur immunstimulierenden Wirkung • 2.1 Plaque-Test zum Nachweis von SE-spezifischen IgM- und IgG-PBZ Zur Prüfung immunstimulierender Effekte wurde u. a. auch der Einfluß von Verbindungen der allgemeinen Formel I auf die humorale Immunantwort an Mäusen des Inzuchtstammes CBA und mittels Hämolyse-Plaque-Test (HPT) untersucht. Diese Technik erlaubt die quantitative und getrennte Erfassung IgM- und IgG-Antikörper produzierender Zellen (= Plaque bildende Zellen; PBZ). Die Immunisierung mit Schaferythrozyten (SE) erfolgte am Tag 0, die Substanzapplikation (Tagesdosis 1.10^-5 mol/kg Körpermasse; peroral) an den Tagen -1 bis +3 (zur Erfassung der IgM-PBZ) bzw. an den Tagen +1 bis +5 (zur Erfassung der IgG-PBZ). • 2.2 Ergebnisse: Durch tägliche und über 5 Tage gehende Gabe von 2,0 mg der Verbindung gemäß Beispiel 1 pro kg Körpermasse konnte die Zahl der IgM-PBZ auf einen Durchschnittswert von 352 % im Vergleich zur Kontrolle (100 %) gesteigert werden. Die gleiche Form der Behandlung führte zu einer Erhöhung der IgG-PBZ auf 497 % (Kontrolle: 100 %). In beiden Fällen erwies sich die Differenz zur Kontrolle im t-Test mit p < 0,001 als signifikant. Es wird deutlich, daß eine über 5 Tage gehende tägliche Behandlung mit der Verbindung gemäß Beispiel 1 bei der CBA-Maus eine hochsignifikante Steigerung SE-spezifischer IgM- und IgG-PBZ hervorruft. • 2.3 Rosettentest (SE-spezifische Rosetten) Nach der BURNET'schen Theorie tragen die Lymphozyten auf ihrer Oberfläche Immunglobulin-Rezeptoren, die gegen ein bestimmtes Antigen gerichtet und durch eine Reaktion mit dem spezifischen Antigen nachweisbar sind. Die Bestimmung der Anzahl an rosettenbildenden Zellen (RBZ) kann als Maß für die Stärke einer anlaufenden Immunreaktion dienen und folgend auch Effekte im Sinne einer Suppression oder Stimulierung zellproliferativer Prozesse wiedergeben. Drei Tage nach der intravenösen Immunisierung mit 2·10^5 Schaferythrozyten (SE) in 0,2 ml physiologischer Kochsalzlösung wurden die Versuchstiere durch Überstrecken getötet, die Milz entnommen und unter Zugabe von Parker-Medium (pH 7,4) durch Müller-Gaze gerieben. Die Arbeiten zur Gewinnung der Zellsuspension wurden im Eiswasserbad (ca 0 bis 4 °C) durchgeführt. In einer Zählkammer nach Neubauer erfolgte die Bestimmung der Zelldichte, und anschließend wurde die für alle Versuchsansätze konstante Zellzahl von 1·10^7 kernhaltigen Zellen (KHZ)/ml Medium eingestellt. 0,9 ml der Milzzellsuspension (1·10^7 KHZ/ml) wurden dann mit 0,1 ml einer 5 %igen gewaschenen Schaferythrozytensuspension versetzt und 24 Stunden bei 4 °C inkubiert. […] 3. Untersuchungen zu immunrestaurativen Effekten 3.1 Der Nachweis der immunrestaurativen Wirksamkeit von Verbindungen der allgemeinen Formel I wurde u. a. dadurch geführt,daß das Immunsystem der Versuchstiere (CBA-Inzuchtmäuse) durch Chemotherapie (Zyklophosphamid, Carageenan, Iloprost) bzw. Bestrahlung geschädigt wurde. Die Prüfung erfolgte u. a. mittels folgender oben erläuterter Techniken: • Plaque-Test zum Nachweis von SE-spezifischen IgM- und IgG-PBZ, • Rosettentest. […]

Vaccinia Lister [3] = assay type: cell-based, Vaccinia-Virus; settings: HEZ; for % Hemmung / Senkung des Virusertrages im Vergleich zur unbehandelten Kontrolle: Beispielreihe 2, Vaccinia Lister, mean of three experiments
Adeno-Virus Typ 4 = assay: Antiviral test in vitro; assay type: cell-based
Influenza A/WSN = assay: One-step replication cycle on chick embryo cells; assay type: cell-based, Influenza-Virus; settings: HEZ; for % Hemmung / Senkung des Virusertrages im Vergleich zur unbehandelten Kontrolle: Beispielreihe 2, Influenza A/WSN, mean of three experiments
[4] = tested on: Herpes simplex Typ 1 Kupka; assay: One-step replication cycle on permanent human kidney cell line
[5] = Beispielreihe 3, Herpes simplex Typ 1 Kupka, 125 µmol/l, mean of two experiments
[6] = Beispielreihe 3, Herpes simplex Typ 1 Kupka, 250 µmol/l, mean of two experiments

`O=c1[nH]c2ccccc2c(=O)n1CCS` [Beispiel 1, 3-(2-Mercaptoethyl)-chinazolin-2,4(1H,3H)-dion] was tested, and the “% Hemmung” value (Vaccinia Lister [1]; Beispielreihe 3, 125 µmol/l) was > 99,99%, the “Senkung des Virusertrages im Vergleich zur unbehandelten Kontrolle” value (Vaccinia Lister [1]; Beispielreihe 3, 125 µmol/l) was > 4,0 log10 TCID50/0,2 ml and the “% Hemmung” value (Vaccinia Lister [1]; Beispielreihe 3, 250 µmol/l) was > 99,99%. The “Senkung des Virusertrages im Vergleich zur unbehandelten Kontrolle” value (Vaccinia Lister [1]; Beispielreihe 3, 250 µmol/l) was > 4,0 log10 TCID50/0,2 ml, the “Senkung des Virusertrages im Vergleich zur unbehandelten Kontrolle” value (Vaccinia Lister [1]; Beispielreihe 3, 31,25 µmol/l) was 3,5 log10 TCID50/0,2 ml and the “% Hemmung” value (Vaccinia Lister [1]; Beispielreihe 3, 31,25 µmol/l, 31.25 µM) was > 99,9%. The “Senkung des Virusertrages im Vergleich zur unbehandelten Kontrolle” value (Vaccinia Lister [1]; Beispielreihe 3, 62,5 µmol/l) was 4,0 log10 TCID50/0,2 ml, the “% Hemmung” value (Vaccinia Lister [1]; Beispielreihe 3, 62,5 µmol/l, 62.5 µM) was 99,99% and the “IgM-PBZ/10^6” value ([2]; test day + 3) was 31,7 ± 26,6 /10^6. The “IgM-PBZ/10^6” value ([2]; test day + 4) was 59,8 ± 26,6 /10^6, the “IgM-PBZ/10^6” value ([2]; test day + 5, p <0,05) was 125,2 ± 32,7 /10^6 and the “IgM-PBZ/10^6” value ([2]; test day + 6) was 47,8 ± 31,2 /10^6. The “IgG-PBZ/10^6 Milzzellen” value ([2]; test day + 6, p <0,05) was 88,3 ± 24,8 /10^6 Milzzellen, the “IgG-PBZ/10^6 Milzzellen” value ([2]; test day + 7, p <0,01) was 128,3 ± 28,6 /10^6 Milzzellen and the “IgG-PBZ/10^6 Milzzellen” value ([2]; test day + 8) was 58,3 ± 43,6 /10^6 Milzzellen. The “% Hemmung” value (Vaccinia Lister [3]; 125 µmol/l) was 99,99%, the “Senkung des Virusertrages im Vergleich zur unbehandelten Kontrolle” value (Vaccinia Lister [3]; 125 µmol/l) was 4,0 log10 TCID50/0,2 ml and the “% Hemmung” value (Vaccinia Lister [3]; 250 µmol/l) was > 99,99%. The “Senkung des Virusertrages im Vergleich zur unbehandelten Kontrolle” value (Vaccinia Lister [3]; 250 µmol/l) was 5,67 log10 TCID50/0,2 ml, the “Senkung des Virusertrages im Vergleich zur unbehandelten Kontrolle” value (Vaccinia Lister [3]; 31,25 µmol/l) was 1,0 log10 TCID50/0,2 ml and the “% Hemmung” value (Vaccinia Lister [3]; 31,25 µmol/l, 31.25 µM) was 99,0%. The “Senkung des Virusertrages im Vergleich zur unbehandelten Kontrolle” value (Vaccinia Lister [3]; 62,5 µmol/l) was 2,5 log10 TCID50/0,2 ml, the “% Hemmung” value (Vaccinia Lister [3]; 62,5 µmol/l, 62.5 µM) was 99,68% and the “Therapeutischer Index = Verhältnis von maximal verträglicher und minimal wirksamer Dosis” value (Vaccinia Lister [3]; für Vaccinia-Virus) was 8. For the same compound, the “antivirale Wirkung” value (Adeno-Virus Typ 4) was “nicht antiviral wirksam”, the “% Hemmung” value (Influenza A/WSN; 125 µmol/l) was > 99,99% and the “Senkung des Virusertrages im Vergleich zur unbehandelten Kontrolle” value (Influenza A/WSN; 125 µmol/l) was 4,67 log10 TCID50/0,2 ml. The “% Hemmung” value (Influenza A/WSN; 250 µmol/l) was > 99,99%, the “Senkung des Virusertrages im Vergleich zur unbehandelten Kontrolle” value (Influenza A/WSN; 250 µmol/l) was 6,23 log10 TCID50/0,2 ml and the “Senkung des Virusertrages im Vergleich zur unbehandelten Kontrolle” value (Influenza A/WSN; 31,25 µmol/l) was 2,5 log10 TCID50/0,2 ml. For the same compound, the “% Hemmung” value (Influenza A/WSN; 31,25 µmol/l, 31.25 µM) was 99,50%, the “Senkung des Virusertrages im Vergleich zur unbehandelten Kontrolle” value (Influenza A/WSN; 62,5 µmol/l) was 4,25 log10 TCID50/0,2 ml and the “% Hemmung” value (Influenza A/WSN; 62,5 µmol/l, 62.5 µM) was > 99,99%. The “Therapeutischer Index = Verhältnis von maximal verträglicher und minimal wirksamer Dosis” value (Influenza A/WSN; für Influenza-Virus) was 8, the “% Hemmung” value [4, 5] was > 99,99% and the “Senkung des Virusertrages im Vergleich zur unbehandelten Kontrolle” value [4, 5] was 5,5 log10 TCID50/0,2 ml. For the same compound, the “% Hemmung” value [4, 6] was > 99,99%, the “Senkung des Virusertrages im Vergleich zur unbehandelten Kontrolle” value [4, 6] was 6,0 log10 TCID50/0,2 ml and the “Senkung des Virusertrages im Vergleich zur unbehandelten Kontrolle” value ([4]; Beispielreihe 3, Herpes simplex Typ 1 Kupka, 62,5 µmol/l, mean of two experiments) was 0,75 log10 TCID50/0,2 ml. The “% Hemmung” value ([4]; Beispielreihe 3, Herpes simplex Typ 1 Kupka, 62,5 µmol/l, n. s. = nicht signifikant) was “n. s”.
